# Structures can show the parent of a compound that is named as a salt.
# Assays:
# human recombinant CTSC = human recombinant CTSC (Homo sapiens (Human), UniProt P53634); experiment: CTSC inhibition assay (in vitro), fluorescent substrate GF-AFC; format: biochemical; conditions: 30 μmol/L GF-AFC, pH 5.0, 25° C.
# Experimental: 1. CTSC Inhibition Assay (In Vitro)
# A test specimen was evaluated by a CTSC inhibition assay using a fluorescent substrate GF-AFC (Gly-Phe-7-Amino-4-trifluoromethylcoumarin, MP Biomedical, 03AFC03325). Since the GF-AFC is converted by CTSC to aminotrifluoromethylcoumarin having a specific fluorescence wavelength and the produced amount is proportional to CTSC activity, quantitative analysis was performed by measuring a fluorescence intensity with a plate reader. CTSC inhibition assay for each compound was performed using a polystyrene-made non-adhesive surface-treated black 384 well plate under the following conditions.
# A human recombinant CTSC (R&D systems, 1071-CY) was dissolved in a CTSC active cocktail (20 ng/mL of human recombinant cathepsin L (R&D systems, 952-CY, 25 mmol/L MES/NaOH (pH: 6.0), 5 mmol/L dithiothreitol (DTT)) so as to be 100 ng/mL and incubated at 18° C. for 30 minutes. The solution was diluted with a CTSC assay buffer (50 mmol/L MES/NaOH (pH: 5.0), 50 mmol/L NaCl, 0.001% Triton X-100, mmol/L DTT) so as to be 2 ng/mL in a case of performing CTSC inhibition assay.
# The test specimen was dissolved in dimethylsulfoxide (DMSO) at 10 mmol/L to prepare a stock solution. In a case where a solution in which the stock solution was diluted 15-fold with DMSO was used as the maximum evaluation concentration (0.667 mmol/L), 5-fold dilution was repeated in DMSO from the solution to prepare a serially diluted solution. 248.8 μL of the CTSC assay buffer was added to 1.12 μL of the serially diluted sample prepared in the DMSO to prepare a solution of a CTSC inhibition assay compound.
# The final composition of the CTSC inhibition assay mixture was 0.66 ng/mL activated CTSC, 50 mmol/L MES/NaOH (pH: 5.0), 50 mmol/L NaCl, 0.001% Triton X-100, 5 mmol/L DTT, 30 μmol/L GF-AFC, and 0.15% DMSO, and the procedure was as follows. That is, 4 μL of the compound solution and 4 μL of the 2 ng/mL activated CTSC solution were mixed with each other in a 384 well plate and incubated at 25° C. for 30 minutes. Thereafter, 4 μL of the GF-AFC solution dissolved in the CTSC assay buffer was added to the mixture so as to be 90 μmol/L. After mixing to be uniform, a fluorescence emission intensity at 505 nm in a case of being excited at 390 nm after incubating at 25° C. for 1 hour was measured with a plate reader. A 4-parameter regression analysis was performed with GraphPad Prism (manufactured by GraphPad Software) from a plot of the fluorescence intensity at 505 nm and the sample concentration, and an IC50 value was calculated.
# Results of test compounds of Formula (I) are shown in Table 1 as IC50 (nM) values for which 50% inhibition concentration is calculated based on CTSC inhibition (%). In the table, Ex indicates an example number.
# CTSC in U937 cells = CTSC in U937 cells (Homo sapiens (Human), UniProt P53634); experiment: Intracellular CTSC inhibition assay (in vitro), LLOMe-induced cell death in U937 cells; format: cell-based; conditions: 3 hours culture, CellTiter-Glo
# Experimental: 2. Intracellular CTSC Inhibition Assay (In Vitro)
# A test specimen was evaluated by a degree of cell death in a case where a substrate LLOMe (L-Leucyl-L-Leucine methyl ester, hydrobromide salt, Sigma, 555045152) was added to U937 cells. The LLOMe is taken up into the cells by endocytosis and cleaved by CTSC. A product thereof induces lysosomal damage in cells and causes cell death in leukocytes and the like. Therefore, since the degree of cell death correlates with an amount of degradation of LLOMe, that is, with CTSC activity, by quantitatively analyzing the cell death, CTSC inhibitory activity of the test specimen in the cell was determined. CTSC inhibition assay was performed using a polystyrene-made white 384 well plate.
# As the test specimen, a stock solution dissolved in DMSO was prepared so as to be 0.2 mmol/L, and in a case where a solution in which the stock solution was diluted 50-fold with a RPMI-1640 medium including 10% FBS was used as the maximum evaluation concentration (4000 nmol/L), a serially diluted solution was prepared by diluting the solution 3-fold with the medium. Thereafter, a 4-fold concentrated test specimen solution with the target final concentration was prepared.
# U937 cells were cultured in a RPMI-1640 medium including 10% FBS, and diluted to prepare 90,000 cells/mL of cell suspension on the day of assay. 10 μL of the cell suspension was seeded per well. Next, 10 μL of the test specimen solution having a concentration 4 times the target final concentration was added thereto, and the mixture was allowed to stand for 30 minutes. Thereafter, 20 μL of a 300 μmol/L LLOMe solution dissolved in a RPMI-1640 medium including 10% FBS was added thereto, and the cells were cultured for 3 hours. After completion of the culture, 40 μL of CellTiter-Glo (registered trademark) reagent (Promega, G7570) was added to each well and mixed. After 15 minutes, 20 μL of the reaction solution in each well was transferred to a white 384 well plate, and a chemiluminescence intensity was measured with a plate reader. A 4-parameter regression analysis was performed with GraphPad Prism (manufactured by GraphPad Software) from a plot of the luminescence intensity and the sample concentration, and an IC50 value was calculated.
# Results of test compounds of Formula (1) are shown in Table 2 as IC50 (nM) values for which 50% inhibition concentration is calculated based on CTSC inhibition (%). In the table, Ex indicates an example number.
# Chain of human recombinant CTSC (P53634 25-134): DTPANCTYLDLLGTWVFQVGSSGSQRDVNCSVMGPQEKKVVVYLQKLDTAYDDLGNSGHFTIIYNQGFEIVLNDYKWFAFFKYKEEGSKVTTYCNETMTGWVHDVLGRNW
# Chain of human recombinant CTSC (P53634 231-394): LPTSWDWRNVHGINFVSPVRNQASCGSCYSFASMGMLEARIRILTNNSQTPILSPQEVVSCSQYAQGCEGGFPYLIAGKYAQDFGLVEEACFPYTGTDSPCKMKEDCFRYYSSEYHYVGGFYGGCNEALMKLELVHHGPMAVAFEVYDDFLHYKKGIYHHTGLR
# Chain of human recombinant CTSC (P53634 395-463): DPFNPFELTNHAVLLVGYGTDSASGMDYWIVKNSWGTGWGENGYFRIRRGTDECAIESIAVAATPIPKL
# Chain of CTSC in U937 cells (P53634 25-463): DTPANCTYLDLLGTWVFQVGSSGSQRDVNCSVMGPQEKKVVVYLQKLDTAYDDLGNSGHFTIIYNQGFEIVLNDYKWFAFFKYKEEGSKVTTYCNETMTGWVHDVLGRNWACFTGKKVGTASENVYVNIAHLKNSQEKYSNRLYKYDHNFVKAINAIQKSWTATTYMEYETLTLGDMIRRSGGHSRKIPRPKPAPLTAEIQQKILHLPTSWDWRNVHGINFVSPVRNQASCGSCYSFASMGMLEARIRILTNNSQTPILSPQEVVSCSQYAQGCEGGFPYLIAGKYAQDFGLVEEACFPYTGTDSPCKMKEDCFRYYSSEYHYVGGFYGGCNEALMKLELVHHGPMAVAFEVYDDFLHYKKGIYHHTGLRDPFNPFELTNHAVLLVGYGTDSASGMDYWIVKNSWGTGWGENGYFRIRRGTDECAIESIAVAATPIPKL
Structure (SMILES),IC50 (human recombinant CTSC) [nM],IC50 (CTSC in U937 cells) [nM]
"O=C([C@@H]1C[C@@H](O)C2(CCC2)CN1)N1CCC(c2nc(C3CC(F)(F)C3)no2)(C(F)(F)F)CC1 [Example 2, (4-(3-(3,3-Difluorocyclobutyl)-1,2,4-oxadiazol-5-yl)-4-(trifluoromethyl)piperidin-1-yl)((7S,9R)-9-hydroxy-6-azaspiro[3.5]nonan-7-yl)methanone]",2.36,0.89
"O=C([C@@H]1C[C@@H](O)C2(CCC2)CN1)N1CCC(c2noc(C3CC(F)(F)C3)n2)(C(F)(F)F)CC1 [Example 3, (4-(5-(3,3-Difluorocyclobutyl)-1,2,4-oxadiazol-3-yl)-4-(trifluoromethyl)piperidin-1-yl)((7S,9R)-9-hydroxy-6-azaspiro[3.5]nonan-7-yl)methanone]",1.52,0.49
O=C([C@@H]1CC[C@@]2(CCO2)CN1)N1CCC(c2nc(C3CCC(F)(F)CC3)cs2)(C(F)(F)F)CC1 [Example 4],4.85,5.64
CC(C)C1(c2noc(C3CC(F)(F)C3)n2)CCN(C(=O)[C@@H]2C[C@@H](O)C3(CCC3)CN2)CC1 [Example 5],1.08,1.01
CN(CC1CCC(F)(F)CC1)C(=O)C1(C(F)(F)F)CCN(C(=O)[C@@H]2CC[C@@]3(CCO3)CN2)CC1 [Example 7],10.4,23.6
CN(CC1CCC(F)(F)CC1)C(=O)C1(C(F)(F)F)CCN(C(=O)[C@@H]2C[C@@H](O)C3(CCC3)CN2)CC1 [Example 8],1.6,1.62
CC(C)C1(c2nc(C3CCC(F)(F)CC3)no2)CCN(C(=O)[C@@H]2C[C@@H](O)C3(CCC3)CN2)CC1 [Example 12],1.03,0.34
O=C([C@@H]1C[C@@H](O)C2(CCC2)CN1)N1CCC(c2nc(C3CCC(F)(F)CC3)no2)(C(F)(F)F)CC1 [Example 13],1.7,0.19
CC(C)C1(c2nnc(C3CCC(F)(F)CC3)o2)CCN(C(=O)[C@@H]2C[C@@H](O)C3(CCC3)CN2)CC1 [Example 14],1.35,4
CC(C)C1(C(=O)NC2CCC(F)(F)CC2)CN(C(=O)[C@@H]2C[C@@H](O)C3(CCC3)CN2)C1 [Example 15],1.9,791
"CC(C)C1(c2nnc(C3CCC(F)(F)CC3)o2)CN(C(=O)[C@@H]2C[C@@H](O)C3(CCC3)CN2)C1 [Example 16, (3-(5-(4,4-difluorocyclohexyl)-1,3,4-oxadiazol-2-yl)-3-isopropylazetidine-1-yl)((7S,9R)-9-hydroxy-6-azaspiro[3.5]nonan-7-yl)methanone trifluoroacetate]",3.17,19.2
CC(C)C1(C(=O)N(C)CC2CCC(F)(F)CC2)CN(C(=O)[C@@H]2C[C@@H](O)C3(CCC3)CN2)C1 [Example 17],1.01,21.4
CC(C)C1(C(=O)NCC2CCC(F)(F)CC2)CN(C(=O)[C@@H]2C[C@@H](O)C3(CCC3)CN2)C1 [Example 20],0.83,227
O=C([C@@H]1C[C@@H](O)C2(CCC2)CN1)N1CCC(C(=O)NCC2CCC(F)(F)CC2)(C(F)(F)F)CC1 [Example 22],1.03,20.8
CC(C)C1(c2noc(C3CCC(F)(F)CC3)n2)CCN(C(=O)[C@H]2NC3CCC2CC3)CC1 [Example 23],88.8,60.9
CC(C)C1(c2noc(C3CCC(F)(F)CC3)n2)CCN(C(=O)[C@@H]2C[C@H](F)CN2)CC1 [Example 24],151,> 1000
CC(C)C1(c2noc(C3CCC(F)(F)CC3)n2)CCN(C(=O)[C@@H]2C[C@H](O)CN2)CC1 [Example 25],> 200,> 200
CC(C)C1(c2noc(C3CCC(F)(F)CC3)n2)CCN(C(=O)[C@H]2N[C@@H]3CC[C@H]2C3)CC1 [Example 26],> 200,474
CS[C@@H]1CN[C@H](C(=O)N2CCC(c3noc(C4CCC(F)(F)CC4)n3)(C(C)C)CC2)C1 [Example 28],254,596
CC(C)C1(c2noc(C3CCC(F)(F)CC3)n2)CCN(C(=O)[C@@H]2C[C@H](S(C)(=O)=O)CN2)CC1 [Example 30],> 1000,> 1000
"O=C([C@@H]1C[C@@H](O)C2(CCC2)CN1)N1CCC(c2noc(C3CCC(F)(F)CC3)n2)(C(F)(F)F)CC1 [Example 31, (4-(5-(4,4-Difluorocyclohexyl)-1,2,4-oxadiazol-3-yl)-4-(trifluoromethyl)piperidin-1-yl)((7S,9R)-9-hydroxy-6-azaspiro[3.5]nonan-7-yl)methanone]",0.31,0.22

# Now from value to compound, other results behind:
IC50 (human recombinant CTSC) [nM],Structure (SMILES),IC50 (CTSC in U937 cells) [nM]
1.63,"CC(C)C1(c2nc(C3CC(F)(F)C3)no2)CCN(C(=O)[C@@H]2C[C@@H](O)C3(CCC3)CN2)CC1 [Example 1, (4-(3-(3,3-Difluorocyclobutyl)-1,2,4-oxadiazol-5-yl)-4-isopropylpiperidin-1-yl)((7S,9R)-9-hydroxy-6-azaspiro[3.5]nonan-7-yl)methanone]",0.49
1.19,CC(C)C1(c2noc(C3CCC(F)(F)CC3)n2)CN(C(=O)[C@@H]2C[C@@H](O)C3(CCC3)CN2)C1 [Example 6],1.06
5.09,CC(C)C1(c2nc(C3CC(F)(F)C3)no2)CCN(C(=O)[C@@H]2CC[C@@]3(CCO3)CN2)CC1 [Example 9],11.4
39.3,O=C([C@@H]1CC[C@@]2(CCO2)CN1)N1CCC(c2nc(C3CC(F)(F)C3)no2)(C(F)(F)F)CC1 [Example 10],162
7.73,O=C([C@@H]1CC[C@@]2(CCO2)CN1)N1CCC(c2nc(C3CCC(F)(F)CC3)no2)(C(F)(F)F)CC1 [Example 11],11.5
3.12,CC(C)C1(c2nc(C3CC(F)(F)C3)no2)CN(C(=O)[C@@H]2C[C@@H](O)C3(CCC3)CN2)C1 [Example 18],2.33
1.23,CC(C)C1(c2nc(C3CCC(F)(F)CC3)no2)CN(C(=O)[C@@H]2C[C@@H](O)C3(CCC3)CN2)C1 [Example 19],0.98
2.51,CC(C)C1(c2nc(C3CCC(F)(F)CC3)no2)CN(C(=O)[C@@H]2CC[C@@]3(CCO3)CN2)C1 [Example 21],4.78
0.24,CC(C)C1(C(=O)NCC2CCC(F)(F)CC2)CN(C(=O)[C@@H]2CC[C@@]3(CCO3)CN2)C1 [Example 27],133
1.47,CC(C)C1(c2nc(C3CC(C)(C)C3)no2)CN(C(=O)[C@@H]2CC[C@@]3(CCO3)CN2)C1 [Example 29],11.3

# From patent publication US12522593B2, “Azacycloalkyl carbonyl cyclic amine compound” (Alivexis, Inc., priority 2022, dated 2026)
